Experimental data as given in patent publication US20250230193A1, “CYCLIC COMPOUND HAVING SELECTIVE KRAS INHIBITORY EFFECT ON HRAS AND NRAS” (CHUGAI SEIYAKU KABUSHIKI KAISHA, priority 2022, published 2025).
*1 amine or outer side, *2 acyl side, *3 side chain or, on linkers, in order; H or OH if unused. Where a SMILES comes first, the peptide text is derived from it. Bridges are numbered along the chain shown (N, C = ends). [ ]: non-standard residue; d: D form. The star is where a group is joined. hPhe(3-Cl-4-CF3) = N[C@@H](CCc1ccc(C(F)(F)F)c(Cl)c1)C(=O)O; NPrPhe(4-CF3) = CCCN[C@@H](Cc1ccc(C(F)(F)F)cc1)C(=O)O; X12 = COCCN([C@@H](Cc1ccc(C)cc1)C(=O)[*:2])[*:1]; NMeGly(cPent) = CN[C@H](C(=O)O)C1CCCC1; NMeD = CN[C@@H](CC(=O)O)C(=O)O; NMeL = CN[C@@H](CC(C)C)C(=O)O; NMeAbu = CC[C@H](NC)C(=O)O; Morpholide = C1CN(*)CCO1; NMeA = CN[C@@H](C)C(=O)O; Ac5c = NC1(C(=O)O)CCCC1; Aze = O=C(O)[C@@H]1CCN1; Ac4c = NC1(C(=O)O)CCC1; Sar = CNCC(=O)O

Key:
[1] = target: GDP-bound NRAS wild-type protein (Homo sapiens, UniProt P01111); assay: Binding to NRAS by surface plasmon resonance (SPR), Single Cycle Kinetics
Chain of GDP-bound NRAS wild-type protein (P01111 whole entry): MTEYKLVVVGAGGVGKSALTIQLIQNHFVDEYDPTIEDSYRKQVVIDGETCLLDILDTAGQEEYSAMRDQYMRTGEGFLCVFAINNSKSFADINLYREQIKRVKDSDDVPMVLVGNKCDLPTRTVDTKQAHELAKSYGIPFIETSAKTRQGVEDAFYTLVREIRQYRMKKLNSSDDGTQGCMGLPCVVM

[2] = target: GDP-bound HRAS wild-type protein (Homo sapiens, UniProt P01112); assay: Binding to HRAS by surface plasmon resonance (SPR), Single Cycle Kinetics
Chain of GDP-bound HRAS wild-type protein (P01112 whole entry): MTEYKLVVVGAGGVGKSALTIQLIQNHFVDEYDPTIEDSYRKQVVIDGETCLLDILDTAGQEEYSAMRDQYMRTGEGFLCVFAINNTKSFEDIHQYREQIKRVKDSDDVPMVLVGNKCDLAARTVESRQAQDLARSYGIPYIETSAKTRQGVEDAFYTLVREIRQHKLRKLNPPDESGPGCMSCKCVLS

[3] = GDP-bound NRAS wild-type vs GDP-bound KRAS wild-type, SPR
[4] = GDP-bound HRAS wild-type vs GDP-bound KRAS wild-type, SPR
[5] = KD ratio NRAS/KRAS, class symbols
[6] = KD ratio HRAS/KRAS, class symbols

**Q.** `CCCN1C(=O)CN(C)C(=O)CN(C)C(=O)[C@H]([C@@H](C)CC)NC(=O)[C@H](CC(C)C)N(C)C(=O)C[C@@H](C(=O)N2CCOCC2)N(C)C(=O)[C@H](C2CCCC2)N(C)C(=O)C2(CCC2)NC(=O)[C@H](CC)N(C)C(=O)[C@H](CCc2ccc(C(F)(F)F)c(Cl)c2)NC(=O)CN(C)C(=O)[C@@H]1Cc1ccc(C(F)(F)F)cc1` [PP1918] ([NMeL]I[Sar][Sar][NPrPhe(4-CF3)][Sar][hPhe(3-Cl-4-CF3)][NMeAbu][Ac4c][NMeGly(cPent)][NMeD]-Morpholide; lactam N-11) was tested. Which “NRAS/KRAS (ratio of KD value for NRAS to KD value for KRAS)” value [1, 3] did it give?
**A.** B (a compound having 3 or more and less than 10 is denoted as B)

**Q.** What about the “HRAS/KRAS (ratio of KD value for HRAS to KD value for KRAS)” value [2, 4] of the same compound?
**A.** C (A compound having a KD ratio of 0.1 or more and less than 3 is denoted as C)

**Q.** How did the “NRAS/KRAS (ratio of KD value with respect to GDP-bound NRAS wild-type protein to KD value with respect to KRAS)” value [1, 5] turn out when `CCOC[C@H]1C(=O)N[C@@H]([C@@H](C)CC)C(=O)N(C2CC2)CC(=O)N(C)[C@H]2C/C=C\CCN(C2=O)[C@@H](Cc2ccc(C)cc2)C(=O)N(C)CC(=O)N[C@@H](CCc2ccc(Cl)c(Cl)c2)C(=O)N2C[C@H](OCC)C[C@H]2C(=O)NC2(CC(C)(C)C2)C(=O)N(C)[C@@H](CC2CCC2)C(=O)N(C)[C@H](C(=O)N(C)C)CC(=O)N1C` [PP2762] was run?
**A.** A (a compound having 10 or more and less than 20 is denoted as A)

**Q.** And the “HRAS/KRAS (ratio of KD value with respect to GDP-bound HRAS wild-type protein to KD value with respect to KRAS)” value [2, 6]?
**A.** A (a compound having 10 or more and less than 20 is denoted as A)

**Q.** `CC[C@H](C)[C@@H]1NC(=O)[C@H](CC(C)C)N(C)C(=O)C[C@@H](C(=O)N2CCOCC2)N(C)C(=O)[C@H](C2CCCC2)N(C)C(=O)C2(CCCC2)NC(=O)[C@@H]2CCCN2C(=O)[C@H](CCc2ccc(C(F)(F)F)c(Cl)c2)NC(=O)CN(C)C(=O)[C@H](Cc2ccc(C)cc2)N(CCOC)C(=O)[C@@H]2CCN2C(=O)[C@H](C)N(C)C1=O` [PP0092] ([NMeL]I[NMeA][Aze][X12][Sar][hPhe(3-Cl-4-CF3)]P[Ac5c][NMeGly(cPent)][NMeD]-Morpholide; lactam N-11) was tested. Which “NRAS/KRAS (ratio of KD for GDP-bound NRAS wild-type to KD for KRAS)” value ([1]; KD ratio NRAS/KRAS, SPR) did it give?
**A.** C (A compound having a KD ratio of 0.1 or more and less than 3 is denoted as C)

**Q.** And the “HRAS/KRAS (ratio of KD for GDP-bound HRAS wild-type to KD for KRAS)” value ([2]; KD ratio HRAS/KRAS, SPR)?
**A.** C (A compound having a KD ratio of 0.1 or more and less than 3 is denoted as C)

**Q.** `CCOC[C@H]1C(=O)N[C@@H]([C@@H](C)CC)C(=O)N(C)CC(=O)N(C)[C@H]2C/C=C\CCN(C2=O)[C@@H](Cc2ccc(C(F)(F)F)cc2)C(=O)N(C)CC(=O)N[C@@H](CCc2ccc(C(F)(F)F)c(OC)c2)C(=O)N2C[C@H](OCC)C[C@H]2C(=O)NC2(CC(C)(C)C2)C(=O)N(C)[C@@H](CC(C)(C)C)C(=O)N(C)[C@H](C(=O)N(C)C)CC(=O)N1C` [PP2736] was tested. Which “NRAS/KRAS (ratio of KD value with respect to GDP-bound NRAS wild-type protein to KD value with respect to KRAS)” value [1, 5] did it give?
**A.** A (a compound having 10 or more and less than 20 is denoted as A)

**Q.** And the “HRAS/KRAS (ratio of KD value with respect to GDP-bound HRAS wild-type protein to KD value with respect to KRAS)” value [2, 6]?
**A.** A (a compound having 10 or more and less than 20 is denoted as A)

**Q.** With `CC[C@H](C)[C@@H]1NC(=O)[C@H](CC(C)C)N(C)C(=O)C[C@@H](C(=O)N(C)CC)N(C)C(=O)[C@H](C2CCCC2)N(C)C(=O)C2(CCC2)NC(=O)[C@@H]2C[C@@H](C)CN2C(=O)[C@H](CCc2ccc(C(F)(F)F)c(OC)c2)NC(=O)CN(C)C(=O)[C@H](Cc2ccc(C)cc2)N2CC/C=C\C[C@@H](C2=O)N(C)C(=O)CN(C)C1=O` [PP1907] as the compound, how does the “NRAS/KRAS (ratio of KD value for NRAS to KD value for KRAS)” value [1, 3] read?
**A.** AA (a compound having 20 or more is denoted as AA)

**Q.** What about the “HRAS/KRAS (ratio of KD value for HRAS to KD value for KRAS)” value [2, 4] of the same compound?
**A.** A (a compound having 10 or more and less than 20 is denoted as A)

**Q.** `CCC[C@H]1C(=O)N[C@@H](C2CCCC2)C(=O)N(C)CC(=O)N(C)[C@H]2C/C=C\CCN(C2=O)[C@@H](Cc2ccc(C)cc2)C(=O)N(C)CC(=O)N[C@@H](CCc2ccc(C(F)(F)F)c(Cl)c2)C(=O)N2C[C@H](OCC)C[C@H]2C(=O)NC2(CC(C)(C)C2)C(=O)N(C)[C@@H](C2CCCC2)C(=O)N(C)[C@H](C(=O)N(C)C)CC(=O)N1C` [PP2198] was tested. Which “NRAS/KRAS (ratio of KD value with respect to NRAS to KD value with respect to KRAS)” value ([1]; SPR, GDP-bound NRAS wild-type vs GDP-bound KRAS wild-type) did it give?
**A.** A (a compound having 10 or more and less than 20 is denoted as A)

**Q.** And the “HRAS/KRAS (ratio of KD value with respect to HRAS to KD value with respect to KRAS)” value ([2]; SPR, GDP-bound HRAS wild-type vs GDP-bound KRAS wild-type)?
**A.** A (a compound having 10 or more and less than 20 is denoted as A)

**Q.** Which results are given for `CCO[C@@H]1C[C@H]2C(=O)NC3(CC=CC3)C(=O)N(C)[C@@H](C3CCCC3)C(=O)N(C)[C@H](C(=O)N3CCOCC3)CC(=O)N(C)[C@@H](CC(C)C)C(=O)N[C@@H]([C@@H](C)CC)C(=O)N(C)CC(=O)N(C)[C@H]3CCCCCN(C3=O)[C@@H](Cc3ccc(C(F)(F)F)cc3)C(=O)N(C)CC(=O)N[C@@H](CCc3cc(F)c(C(F)(F)F)c(F)c3)C(=O)N2C1` [PP0727]?
**A.** NRAS/KRAS (ratio of KD value with respect to GDP-bound NRAS wild-type protein to KD value with respect to KRAS) ([1]; KD ratio NRAS/KRAS, SPR): B (a compound having 3 or more and less than 10 is denoted as B); HRAS/KRAS (ratio of KD value with respect to GDP-bound HRAS wild-type protein to KD value with respect to KRAS) ([2]; KD ratio HRAS/KRAS, SPR): B (a compound having 3 or more and less than 10 is denoted as B)
